Results as given in ChEMBL document CHEMBL1201862, “PubChem BioAssay data set” (2004).
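Following 48 hours of exposure in 96-well plates, responses at five concentrations were used to interpolate endpoints linearly. GI50 = concentration required for 50% inhibition of growth.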 Active and inactive are the calls of the source. Rule as the data show it: active = GI50 up to about 1.1 µM and inactive = higher.

Legend:
Assay in all cases: growth of human tumour cells (NCI), 48 h
786-0 = test system: 786-0
A498 = test system: A498
A549 = test system: A549
ACHN = test system: ACHN
BT-549 = test system: BT-549
CAKI-1 = test system: CAKI-1
CCRF-CEM = test system: CCRF-CEM
COLO 205 = test system: COLO 205
DU-145 = test system: DU-145
EKVX = test system: EKVX
HCC 2998 = test system: HCC 2998
HCT-116 = test system: HCT-116
HCT-15 = test system: HCT-15
HL-60 = test system: HL-60
HOP-62 = test system: HOP-62
HOP-92 = test system: HOP-92
HT-29 = test system: HT-29
Hs-578T = test system: Hs-578T
IGROV-1 = test system: IGROV-1
K562 = test system: K562
KM12 = test system: KM12
LOX IMVI = test system: LOX IMVI
M14 = test system: M14
MCF7 = test system: MCF7
MDA-MB-435 = test system: MDA-MB-435
MDA-N = test system: MDA-N
MOLT-4 = test system: MOLT-4
Malme-3M = test system: Malme-3M
NCI-H23 = test system: NCI-H23
NCI-H460 = test system: NCI-H460
NCI-H522 = test system: NCI-H522
NCI/ADR-RES = test system: NCI/ADR-RES
OVCAR-3 = test system: OVCAR-3
OVCAR-4 = test system: OVCAR-4
OVCAR-5 = test system: OVCAR-5
OVCAR-8 = test system: OVCAR-8
RPMI-8226 = test system: RPMI-8226
RXF 393 = test system: RXF 393
SF-268 = test system: SF-268
SF-295 = test system: SF-295
SF-539 = test system: SF-539
SK-MEL-28 = test system: SK-MEL-28
SK-MEL-5 = test system: SK-MEL-5
SK-OV-3 = test system: SK-OV-3
SN12C = test system: SN12C
SNB-19 = test system: SNB-19
SNB-75 = test system: SNB-75
SR = test system: SR
SW-620 = test system: SW-620
TK-10 = test system: TK-10
UACC-257 = test system: UACC-257
UACC-62 = test system: UACC-62
UO-31 = test system: UO-31
MDA-MB-231 = test system: MDA-MB-231
NCI-H226 = test system: NCI-H226
PC-3 = test system: PC-3
SK-MEL-2 = test system: SK-MEL-2
T47D = test system: T47D
U-251 = test system: U-251

`CCOC(=O)/C(=C\NCC(O)c1ccccc1)c1nc2ccccc2[nH]1` (stereo unspecified) was tested, and the GI50 (786-0) was 27.5 µM (inactive), the GI50 (A498) was 20.1 µM (inactive) and the GI50 (A549) was 33.7 µM (inactive). For the same compound, the GI50 (ACHN) was 11 µM (inactive), the GI50 (BT-549) was 29.9 µM (inactive) and the GI50 (CAKI-1) was 32.4 µM (inactive). The GI50 (CCRF-CEM) was 13.6 µM (inactive), the GI50 (COLO 205) was 16.7 µM (inactive) and the GI50 (DU-145) was 28.4 µM (inactive). The GI50 (EKVX) was 21.3 µM (inactive), the GI50 (HCC 2998) was 20.4 µM (inactive) and the GI50 (HCT-116) was 28.6 µM (inactive). The GI50 (HCT-15) was 21.6 µM, the GI50 (HL-60) was 13.6 µM (inactive) and the GI50 (HOP-62) was 43.5 µM (inactive). For the same compound, the GI50 (HOP-92) was 22.1 µM (inactive), the GI50 (HT-29) was 21.5 µM (inactive) and the GI50 (Hs-578T) was 20.5 µM (inactive). The GI50 (IGROV-1) was 20.1 µM (inactive), the GI50 (K562) was 19.8 µM (inactive) and the GI50 (KM12) was 21.6 µM (inactive). The GI50 (LOX IMVI) was 19.5 µM (inactive), the GI50 (M14) was 30.4 µM (inactive) and the GI50 (MCF7) was 18.7 µM (inactive). The GI50 (MDA-MB-435) was 20.9 µM (inactive), the GI50 (MDA-N) was 27.5 µM (inactive) and the GI50 (MOLT-4) was 11.8 µM (inactive). The GI50 (Malme-3M) was 25.6 µM (inactive), the GI50 (NCI-H23) was 18.1 µM (inactive) and the GI50 (NCI-H460) was 17.2 µM (inactive). For the same compound, the GI50 (NCI-H522) was 17.5 µM (inactive), the GI50 (NCI/ADR-RES) was 20.8 µM (inactive) and the GI50 (OVCAR-3) was 34.7 µM (inactive). For the same compound, the GI50 (OVCAR-4) was 23.8 µM (inactive), the GI50 (OVCAR-5) was 26.4 µM (inactive) and the GI50 (OVCAR-8) was 23.2 µM (inactive). The GI50 (RPMI-8226) was 11.3 µM (inactive), the GI50 (RXF 393) was 27.4 µM (inactive) and the GI50 (SF-268) was 17.3 µM (inactive). The GI50 (SF-295) was 24.8 µM (inactive), the GI50 (SF-539) was 21.1 µM (inactive) and the GI50 (SK-MEL-28) was 17.2 µM (inactive). The GI50 (SK-MEL-5) was 11 µM (inactive), the GI50 (SK-OV-3) was 31.8 µM (inactive) and the GI50 (SN12C) was 31.9 µM (inactive). The GI50 (SNB-19) was 48.9 µM (inactive), the GI50 (SNB-75) was 24.2 µM (inactive) and the GI50 (SR) was 17.5 µM (inactive). For the same compound, the GI50 (SW-620) was 31.4 µM (inactive), the GI50 (TK-10) was 26.1 µM (inactive) and the GI50 (UACC-257) was 19.6 µM (inactive). The GI50 (UACC-62) was 14.2 µM (inactive) and the GI50 (UO-31) was 0.103 µM (active).
In the case of `CCOC(=O)c1c(-c2ccccc2)oc(=O)c(Cc2cccc3cccnc23)c1-c1ccccc1`, the GI50 (786-0) is reported as > 10 µM (inactive), the GI50 (A498) is reported as > 10 µM (inactive) and the GI50 (A549) is reported as > 10 µM (inactive). The GI50 (ACHN) was > 10 µM (inactive), the GI50 (BT-549) was > 10 µM (inactive) and the GI50 (CAKI-1) was > 10 µM (inactive). For the same compound, the GI50 (CCRF-CEM) was > 10 µM (inactive), the GI50 (COLO 205) was > 10 µM (inactive) and the GI50 (DU-145) was > 10 µM (inactive). The GI50 (EKVX) was > 10 µM (inactive), the GI50 (HCC 2998) was > 10 µM (inactive) and the GI50 (HCT-116) was > 10 µM (inactive). For the same compound, the GI50 (HCT-15) was > 10 µM, the GI50 (HL-60) was > 10 µM (inactive) and the GI50 (HOP-62) was > 10 µM (inactive). For the same compound, the GI50 (HOP-92) was > 10 µM (inactive), the GI50 (HT-29) was > 10 µM (inactive) and the GI50 (Hs-578T) was > 10 µM (inactive). For the same compound, the GI50 (IGROV-1) was > 10 µM (inactive), the GI50 (K562) was > 10 µM (inactive) and the GI50 (KM12) was > 10 µM (inactive). For the same compound, the GI50 (LOX IMVI) was > 10 µM (inactive), the GI50 (M14) was > 10 µM (inactive) and the GI50 (MCF7) was > 10 µM (inactive). For the same compound, the GI50 (MDA-MB-231) was > 10 µM (inactive), the GI50 (MDA-MB-435) was > 10 µM (inactive) and the GI50 (MOLT-4) was > 10 µM (inactive). For the same compound, the GI50 (Malme-3M) was > 10 µM (inactive), the GI50 (NCI-H226) was > 10 µM (inactive) and the GI50 (NCI-H23) was > 10 µM (inactive). For the same compound, the GI50 (NCI-H460) was > 10 µM (inactive), the GI50 (NCI-H522) was > 10 µM (inactive) and the GI50 (NCI/ADR-RES) was > 10 µM (inactive). For the same compound, the GI50 (OVCAR-3) was > 10 µM (inactive), the GI50 (OVCAR-4) was > 10 µM (inactive) and the GI50 (OVCAR-5) was > 10 µM (inactive). The GI50 (OVCAR-8) was > 10 µM (inactive), the GI50 (PC-3) was 9.55 µM (inactive) and the GI50 (RPMI-8226) was > 10 µM (inactive). The GI50 (RXF 393) was > 10 µM (inactive), the GI50 (SF-268) was > 10 µM (inactive) and the GI50 (SF-295) was > 10 µM (inactive). For the same compound, the GI50 (SF-539) was > 10 µM (inactive), the GI50 (SK-MEL-28) was > 10 µM (inactive) and the GI50 (SK-MEL-2) was > 10 µM (inactive). The GI50 (SK-MEL-5) was > 10 µM (inactive), the GI50 (SK-OV-3) was > 10 µM (inactive) and the GI50 (SN12C) was > 10 µM (inactive). The GI50 (SNB-19) was > 10 µM (inactive), the GI50 (SNB-75) was > 10 µM (inactive) and the GI50 (SR) was > 10 µM (inactive). For the same compound, the GI50 (SW-620) was > 10 µM (inactive), the GI50 (T47D) was > 10 µM (inactive) and the GI50 (TK-10) was > 10 µM (inactive). For the same compound, the GI50 (U-251) was > 10 µM (inactive), the GI50 (UACC-257) was > 10 µM (inactive) and the GI50 (UACC-62) was > 10 µM (inactive). The GI50 (UO-31) was > 10 µM (inactive).
